Source: publication PMC11631053, “A receptor-based assay to study the sweet and bitter tastes of sweeteners and binary sweet blends: the SWEET project” (Chemical Senses, 2024)

Tests used:
TAS2R13 = molecular target: T1, TAS2R13 (Homo sapiens, UniProt Q9NYV9); test: Calcium mobilization assay, HEK293T-Gα16gust44 cells expressing TAS2R13; conditions: maximal concentration tested: sucralose 100 mM, neotame 30 µM, Ace-K 300 mM, RebA 4 mM, RebM 4 mM, mogroside V 5 mM, erythritol 200 mM, D-allulose 500 mM, thaumatin 100 mM
T1 sequence (Q9NYV9 1-303): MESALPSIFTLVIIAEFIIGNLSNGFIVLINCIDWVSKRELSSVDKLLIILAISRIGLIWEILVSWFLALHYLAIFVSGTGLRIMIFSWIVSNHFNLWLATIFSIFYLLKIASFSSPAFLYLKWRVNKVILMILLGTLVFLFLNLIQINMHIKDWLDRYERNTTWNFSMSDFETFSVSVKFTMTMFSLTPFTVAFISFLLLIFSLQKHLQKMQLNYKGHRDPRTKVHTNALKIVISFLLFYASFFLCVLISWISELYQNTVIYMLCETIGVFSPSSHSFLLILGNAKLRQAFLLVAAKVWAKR
Experimental: (§1) Different concentration ranges were tested depending on the injected sweet compound. […] All of the concentration-receptor combinations were measured in triplicate, and each experiment was repeated at least 3 times. The Ca^2+ change was expressed as a fractional change in fluorescent light intensity: ΔF/F = (F − F0)/F0, where F was the fluorescent light intensity at each point, and F0 was the value of fluorescent light emitted prior to stimulus application. To calculate dose–response relationships, the changes in fluorescence upon stimulus application were averaged, mock-subtracted and baseline-corrected. The resulting obtained dose–response data were adjusted by using a 4-parameter logistic equation.

TAS2R14 = molecular target: T2, TAS2R14 (Homo sapiens, UniProt Q9NYV8); test: Calcium mobilization assay, HEK293T-Gα16gust44 cells expressing TAS2R14; conditions: maximal concentration tested: sucralose 100 mM, neotame 30 µM, Ace-K 300 mM, RebA 4 mM, RebM 4 mM, mogroside V 5 mM, erythritol 200 mM, D-allulose 500 mM, thaumatin 100 mM
T2 sequence (Q9NYV8 1-317): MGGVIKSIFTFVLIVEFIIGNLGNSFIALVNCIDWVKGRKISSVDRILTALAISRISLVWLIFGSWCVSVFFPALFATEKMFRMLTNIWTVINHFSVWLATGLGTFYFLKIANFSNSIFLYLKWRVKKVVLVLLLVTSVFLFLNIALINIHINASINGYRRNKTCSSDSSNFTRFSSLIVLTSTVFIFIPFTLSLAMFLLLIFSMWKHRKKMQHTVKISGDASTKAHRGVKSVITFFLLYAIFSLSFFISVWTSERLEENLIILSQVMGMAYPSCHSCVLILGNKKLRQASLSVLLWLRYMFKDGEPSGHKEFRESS
Experimental: as §1

TAS2R19 = molecular target: T3, TAS2R19 (Homo sapiens, UniProt P59542); test: Calcium mobilization assay, HEK293T-Gα16gust44 cells expressing TAS2R19; conditions: maximal concentration tested: sucralose 100 mM, neotame 30 µM, Ace-K 300 mM, RebA 4 mM, RebM 4 mM, mogroside V 5 mM, erythritol 200 mM, D-allulose 500 mM, thaumatin 100 mM
T3 sequence (P59542 1-299): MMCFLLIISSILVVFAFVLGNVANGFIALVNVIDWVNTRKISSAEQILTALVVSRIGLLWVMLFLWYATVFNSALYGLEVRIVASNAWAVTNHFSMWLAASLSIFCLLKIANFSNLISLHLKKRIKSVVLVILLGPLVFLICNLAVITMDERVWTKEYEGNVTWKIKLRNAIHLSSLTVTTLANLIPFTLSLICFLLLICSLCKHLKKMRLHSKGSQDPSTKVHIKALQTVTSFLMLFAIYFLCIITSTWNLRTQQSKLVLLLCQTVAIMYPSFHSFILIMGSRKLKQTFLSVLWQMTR
Experimental: as §1

TAS2R30 = molecular target: T4, TAS2R30 (Homo sapiens, UniProt P59541); test: Calcium mobilization assay, HEK293T-Gα16gust44 cells expressing TAS2R30; conditions: for Response of TAS2R30: maximal concentration tested: sucralose 100 mM, neotame 30 µM, Ace-K 300 mM, RebA 4 mM, RebM 4 mM, mogroside V 5 mM, erythritol 200 mM, D-allulose 500 mM, thaumatin 100 mM
T4 sequence (P59541 1-319): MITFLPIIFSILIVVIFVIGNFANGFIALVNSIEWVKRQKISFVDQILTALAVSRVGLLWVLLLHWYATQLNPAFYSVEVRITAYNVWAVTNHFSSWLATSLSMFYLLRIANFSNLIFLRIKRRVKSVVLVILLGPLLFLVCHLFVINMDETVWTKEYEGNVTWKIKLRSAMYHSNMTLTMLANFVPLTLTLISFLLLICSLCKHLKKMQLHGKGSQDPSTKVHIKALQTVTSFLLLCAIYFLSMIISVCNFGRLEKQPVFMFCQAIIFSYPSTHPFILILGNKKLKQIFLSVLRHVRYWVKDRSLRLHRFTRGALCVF
Experimental: as §1

TAS2R41 = molecular target: T5, TAS2R41 (Homo sapiens, UniProt P59536); test: Calcium mobilization assay, HEK293T-Gα16gust44 cells expressing TAS2R41; conditions: maximal concentration tested: sucralose 100 mM, neotame 30 µM, Ace-K 300 mM, RebA 4 mM, RebM 4 mM, mogroside V 5 mM, erythritol 200 mM, D-allulose 500 mM, thaumatin 100 mM
T5 sequence (P59536 1-307): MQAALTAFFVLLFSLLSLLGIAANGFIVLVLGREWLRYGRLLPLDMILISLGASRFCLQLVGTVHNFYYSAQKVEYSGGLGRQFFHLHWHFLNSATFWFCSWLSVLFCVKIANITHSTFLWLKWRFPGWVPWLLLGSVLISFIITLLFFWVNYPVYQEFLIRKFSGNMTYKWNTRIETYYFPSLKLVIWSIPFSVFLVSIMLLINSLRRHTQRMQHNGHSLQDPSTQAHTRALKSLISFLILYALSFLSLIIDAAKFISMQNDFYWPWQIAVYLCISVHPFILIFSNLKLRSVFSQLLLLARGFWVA
Experimental: (§2) Different concentration ranges were tested depending on the injected sweet compound. […] All of the concentration-receptor combinations were measured in triplicate, and each experiment was repeated at least 3 times. The Ca^2+ change was expressed as a fractional change in fluorescent light intensity: ΔF/F = (F − F0)/F0, where F was the fluorescent light intensity at each point, and F0 was the value of fluorescent light emitted prior to stimulus application. To calculate dose–response relationships, the changes in fluorescence upon stimulus application were averaged, mock-subtracted and baseline-corrected. The resulting obtained dose–response data were adjusted by using a 4-parameter logistic equation. The half-maximal effective concentration (EC50) was calculated by using SigmaPlot software (Systat Software, San Jose, CA, USA) as described in supplemental Supplementary Figs. S1, S2, and S3.

TAS2R43 = molecular target: T6, TAS2R43 (Homo sapiens, UniProt P59537); test: Calcium mobilization assay, HEK293T-Gα16gust44 cells expressing TAS2R43; conditions: for Response of TAS2R43: maximal concentration tested: sucralose 100 mM, neotame 30 µM, Ace-K 300 mM, RebA 4 mM, RebM 4 mM, mogroside V 5 mM, erythritol 200 mM, D-allulose 500 mM, thaumatin 100 mM
T6 sequence (P59537 1-309): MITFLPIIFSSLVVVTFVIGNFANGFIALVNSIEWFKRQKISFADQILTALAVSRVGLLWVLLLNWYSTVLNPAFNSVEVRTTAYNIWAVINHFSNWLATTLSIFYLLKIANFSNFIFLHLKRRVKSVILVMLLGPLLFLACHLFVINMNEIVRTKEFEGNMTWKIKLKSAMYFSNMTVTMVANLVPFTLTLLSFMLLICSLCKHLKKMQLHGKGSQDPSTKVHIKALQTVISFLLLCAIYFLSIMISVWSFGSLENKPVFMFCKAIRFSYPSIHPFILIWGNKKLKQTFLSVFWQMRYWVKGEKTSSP
Experimental: as §1

TAS2R45 = molecular target: T7, TAS2R45 (Homo sapiens, UniProt P59539); test: Calcium mobilization assay, HEK293T-Gα16gust44 cells expressing TAS2R45; conditions: maximal concentration tested: sucralose 100 mM, neotame 30 µM, Ace-K 300 mM, RebA 4 mM, RebM 4 mM, mogroside V 5 mM, erythritol 200 mM, D-allulose 500 mM, thaumatin 100 mM
T7 sequence (P59539 1-299): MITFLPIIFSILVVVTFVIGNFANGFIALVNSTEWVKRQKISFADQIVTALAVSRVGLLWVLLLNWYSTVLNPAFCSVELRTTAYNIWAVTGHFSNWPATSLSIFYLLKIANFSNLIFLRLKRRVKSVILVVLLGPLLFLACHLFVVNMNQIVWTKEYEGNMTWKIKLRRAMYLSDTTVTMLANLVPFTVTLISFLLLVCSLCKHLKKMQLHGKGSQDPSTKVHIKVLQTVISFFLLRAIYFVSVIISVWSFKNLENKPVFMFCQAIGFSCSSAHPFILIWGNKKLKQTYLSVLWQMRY
Experimental: as §2

| Response of TAS2R13 (TAS2R13) | Response of TAS2R14 (TAS2R14) | Response of TAS2R19 (TAS2R19) | Response of TAS2R30 (TAS2R30) | Response of TAS2R41 (TAS2R41) | Response of TAS2R43 (TAS2R43) | Response of TAS2R45 (TAS2R45) | Compound | concentrations at which TAS2R30 was activated (TAS2R30) | concentrations at which TAS2R43 was activated (TAS2R43) |
| --- | --- | --- | --- | --- | --- | --- | --- | --- | --- |
| − | − | − | − | − | − | − | OC[C@@H](O)[C@@H](O)CO [Erythritol, erythritol] |  |  |
| − | − | − | − | − | − | − | OC[C@H]1O[C@H](O[C@]2(CCl)O[C@H](CCl)[C@@H](O)[C@@H]2O)[C@H](O)[C@@H](O)[C@H]1Cl [Sucralose, sucralose] |  |  |
| − | − | − | − | − | − | − | thaumatin |  |  |
| − | − | − | − | − | − | − | C=C1C[C@@]23CC[C@H]4[C@@](C)(CCC[C@@]4(C)C(=O)O[C@@H]4O[C@H](CO)[C@@H](O)[C@H](O[C@@H]5O[C@H](CO)[C@@H](O)[C@H](O)[C@H]5O)[C@H]4O[C@@H]4O[C@H](CO)[C@@H](O)[C@H](O)[C@H]4O)[C@@H]2CC[C@]1(O[C@@H]1O[C@H](CO)[C@@H](O)[C@H](O[C@@H]2O[C@H](CO)[C@@H](O)[C@H](O)[C@H]2O)[C@H]1O[C@@H]1O[C@H](CO)[C@@H](O)[C@H](O)[C@H]1O)C3 [RebM, Rebaudioside M] |  |  |
| − | − | − | − | − | − | − | COC(=O)[C@H](Cc1ccccc1)NC(=O)[C@H](CC(=O)O)NCCC(C)(C)C [Neotame] |  |  |
| − | − | − | − | − | §^b | − | CC1=CC(=O)NS(=O)(=O)O1 [Ace-K, acesulfame-K] |  |  |

| Compound | Response of TAS2R13 (TAS2R13) | Response of TAS2R14 (TAS2R14) | Response of TAS2R19 (TAS2R19) | Response of TAS2R30 (TAS2R30) | Response of TAS2R41 (TAS2R41) | Response of TAS2R43 (TAS2R43) | Response of TAS2R45 (TAS2R45) | concentrations at which TAS2R30 was activated (TAS2R30) | concentrations at which TAS2R43 was activated (TAS2R43) |
| --- | --- | --- | --- | --- | --- | --- | --- | --- | --- |
| O=C(CO)[C@H](O)[C@H](O)[C@H](O)CO [D-allulose] | − | + | + | + | − | + | − | > 300 mM | > 300 mM |
| C[C@H](CC[C@@H](O[C@@H]1O[C@H](CO[C@@H]2O[C@H](CO)[C@@H](O)[C@H](O)[C@H]2O)[C@@H](O)[C@H](O)[C@H]1O[C@@H]1O[C@H](CO)[C@@H](O)[C@H](O)[C@H]1O)C(C)(C)O)[C@H]1CC[C@@]2(C)[C@@H]3CC=C4[C@@H](CC[C@H](O[C@@H]5O[C@H](CO[C@@H]6O[C@H](CO)[C@@H](O)[C@H](O)[C@H]6O)[C@@H](O)[C@H](O)[C@H]5O)C4(C)C)[C@]3(C)[C@H](O)C[C@]12C [Mogroside V, mogroside V] | − | − | − | − | − | − | − |  |  |
